US10770169B2, “Method of providing a treatment to a subject based on a dynamic pathway map” (THE REGENTS OF THE UNIVERSITY OF CALIFORNIA, priority 2010, dated 2020)
Read-outs that look alike come from different tables or passages of the source.

System: panel of 55 breast cancer cell lines
Assay: Cell growth inhibition assay (Cell Titer Glo, 72 h, 9 doses; GI50, TGI, LC50)
Assay type: cell-based, human
[1] = AU565 cell line, censored GI50 values, value is the negative log10 of mol/L
[2] = HCC1187 cell line, censored GI50 values, value is the negative log10 of mol/L
[3] = cell line AU565, value is the negative log10 of mol/L
[4] = cell line BT20, value is the negative log10 of mol/L
[5] = cell line BT474, value is the negative log10 of mol/L
[6] = cell line CAMA1, value is the negative log10 of mol/L
[7] = cell line HCC1143, value is the negative log10 of mol/L
[8] = cell line HCC1187, value is the negative log10 of mol/L
[9] = cell line HCC1428, value is the negative log10 of mol/L
[10] = cell line HCC1806, value is the negative log10 of mol/L
[11] = cell line HCC1937, value is the negative log10 of mol/L
[12] = cell line HCC1954, value is the negative log10 of mol/L
[13] = cell line HCC2185, value is the negative log10 of mol/L
[14] = cell line SKBR3, value is the negative log10 of mol/L
[15] = cell line SUM149PT, value is the negative log10 of mol/L
[16] = cell line SUM159PT, value is the negative log10 of mol/L
[17] = cell line SUM1315MO, value is the negative log10 of mol/L
[18] = cell line UACC812, value is the negative log10 of mol/L
[19] = cell line ZR75B, value is the negative log10 of mol/L
[20] = cell line ZR751, value is the negative log10 of mol/L

Cn1c(=O)n(-c2ccc(C(C)(C)C#N)cc2)c2c3cc(-c4cnc5ccccc5c4)ccc3ncc21 [BEZ235] gave a GI50 (Homo sapiens, AU565, AU565 cell line, censored GI50 values, read-out: GI50 (converted)) of 257 nM, a GI50 (Homo sapiens, AU565, cell line AU565, read-out: GI50 (converted)) of 257 nM and a GI50 (Homo sapiens, BT-20, BT20 cell line, censored GI50 values, read-out: GI50 (converted)) of 3800 nM. For the same compound, the GI50 (Homo sapiens, BT-20, cell line BT20, read-out: GI50 (converted)) was 3800 nM, the GI50 (Homo sapiens, BT-474, BT474 cell line, censored GI50 values, read-out: GI50 (converted)) was 347 nM and the GI50 (Homo sapiens, BT-474, cell line BT474, read-out: GI50 (converted)) was 347 nM. For the same compound, the GI50 (Homo sapiens, BT-483, BT483 cell line, censored GI50 values, read-out: GI50 (converted)) was 11200 nM, the GI50 (Homo sapiens, BT-483, cell line BT483, read-out: GI50 (converted)) was 11200 nM and the GI50 (Homo sapiens, CAMA-1, CAMA1 cell line, censored GI50 values, read-out: GI50 (converted)) was 16600 nM. For the same compound, the GI50 (Homo sapiens, CAMA-1, cell line CAMA1, read-out: GI50 (converted)) was 16600 nM, the GI50 (Homo sapiens, HCC38, HCC38 cell line, censored GI50 values, read-out: GI50 (converted)) was 490 nM and the GI50 (Homo sapiens, HCC38, cell line HCC38, read-out: GI50 (converted)) was 490 nM. For the same compound, the GI50 (Homo sapiens, HCC70, HCC70 cell line, censored GI50 values, read-out: GI50 (converted)) was 158 nM, the GI50 (Homo sapiens, HCC70, cell line HCC70, read-out: GI50 (converted)) was 158 nM and the GI50 (Homo sapiens, HCC1187, cell line HCC1187, read-out: GI50 (converted)) was 33100 nM. The GI50 (Homo sapiens, HCC1428, HCC1428 cell line, censored GI50 values, read-out: GI50 (converted)) was 17000 nM, the GI50 (Homo sapiens, HCC1428, cell line HCC1428, read-out: GI50 (converted)) was 17000 nM and the GI50 (Homo sapiens, HCC1954, HCC1954 cell line, censored GI50 values, read-out: GI50 (converted)) was 52.5 nM. The GI50 (Homo sapiens, HCC1954, cell line HCC1954, read-out: GI50 (converted)) was 52.5 nM, the GI50 (Homo sapiens, HCC2185 cell line, censored GI50 values, read-out: GI50 (converted)) was 263 nM and the GI50 (Homo sapiens, HCC3153 cell line, censored GI50 values, read-out: GI50 (converted)) was 646 nM. For the same compound, the GI50 (Homo sapiens, MCF7, MCF7 cell line, censored GI50 values, read-out: GI50 (converted)) was 589 nM, the GI50 (Homo sapiens, MCF7, cell line MCF7, read-out: GI50 (converted)) was 589 nM and the GI50 (Homo sapiens, MDA-MB-134-VI, MDAMB134VI cell line, censored GI50 values, read-out: GI50 (converted)) was 1000 nM. The GI50 (Homo sapiens, MDA-MB-175-VII, MDAMB175VII cell line, censored GI50 values, read-out: GI50 (converted)) was 1150 nM, the GI50 (Homo sapiens, MDA-MB-361, MDAMB361 cell line, censored GI50 values, read-out: GI50 (converted)) was 813 nM and the GI50 (Homo sapiens, MDA-MB-361, cell line MDAMB361, read-out: GI50 (converted)) was 813 nM. The GI50 (Homo sapiens, MDA-MB-415, MDAMB415 cell line, censored GI50 values, read-out: GI50 (converted)) was 263 nM, the GI50 (Homo sapiens, MDA-MB-415, cell line MDAMB415, read-out: GI50 (converted)) was 263 nM and the GI50 (Homo sapiens, MDA-MB-453, MDAMB453 cell line, censored GI50 values, read-out: GI50 (converted)) was 132 nM. The GI50 (Homo sapiens, MDA-MB-453, cell line MDAMB453, read-out: GI50 (converted)) was 132 nM, the GI50 (Homo sapiens, MDA-MB-468, cell line MDAMB468, read-out: GI50 (converted)) was 33100 nM and the GI50 (Homo sapiens, SK-BR-3, SKBR3 cell line, censored GI50 values, read-out: GI50 (converted)) was 589 nM. The GI50 (Homo sapiens, SK-BR-3, cell line SKBR3, read-out: GI50 (converted)) was 589 nM, the GI50 (Homo sapiens, SUM52PE, SUM52PE cell line, censored GI50 values, read-out: GI50 (converted)) was 17000 nM and the GI50 (Homo sapiens, SUM52PE, cell line SUM52PE, read-out: GI50 (converted)) was 17000 nM. For the same compound, the GI50 (Homo sapiens, SUM149PT, SUM149PT cell line, censored GI50 values, read-out: GI50 (converted)) was 269 nM, the GI50 (Homo sapiens, SUM149PT, cell line SUM149PT, read-out: GI50 (converted)) was 269 nM and the GI50 (Homo sapiens, SUM185PE, SUM185PE cell line, censored GI50 values, read-out: GI50 (converted)) was 15100 nM. For the same compound, the GI50 (Homo sapiens, SUM185PE, cell line SUM185PE, read-out: GI50 (converted)) was 15100 nM, the GI50 (Homo sapiens, SUM1315MO2, SUM1315MO2 cell line, censored GI50 values, read-out: GI50 (converted)) was 224 nM and the GI50 (Homo sapiens, SUM-159-PT, SUM159PT cell line, censored GI50 values, read-out: GI50 (converted)) was 36.3 nM. The GI50 (Homo sapiens, SUM-159-PT, cell line SUM159PT, read-out: GI50 (converted)) was 36.3 nM, the GI50 (Homo sapiens, T47D, T47D cell line, censored GI50 values, read-out: GI50 (converted)) was 282 nM and the GI50 (Homo sapiens, T47D, cell line T47D, read-out: GI50 (converted)) was 282 nM. The GI50 (Homo sapiens, UACC-812, UACC812 cell line, censored GI50 values, read-out: GI50 (converted)) was 16600 nM, the GI50 (Homo sapiens, UACC-812, cell line UACC812, read-out: GI50 (converted)) was 16600 nM and the GI50 (Homo sapiens, ZR-75-1, ZR751 cell line, censored GI50 values, read-out: GI50 (converted)) was 16600 nM. The GI50 (Homo sapiens, ZR-75-1, cell line ZR751, read-out: GI50 (converted)) was 16600 nM, the GI50 (Homo sapiens, ZR-75B, ZR75B cell line, censored GI50 values, read-out: GI50 (converted)) was 141 nM and the GI50 (Homo sapiens, ZR-75B, cell line ZR75B, read-out: GI50 (converted)) was 141 nM. The GI50 (Homo sapiens, cell line HCC2185, read-out: GI50 (converted)) was 263 nM, the GI50 (Homo sapiens, cell line HCC3153, read-out: GI50 (converted)) was 646 nM and the GI50 (Homo sapiens, cell line MDAMB134V, read-out: GI50 (converted)) was 1000 nM. For the same compound, the GI50 (Homo sapiens, cell line MDAMB175V, read-out: GI50 (converted)) was 1150 nM and the GI50 (Homo sapiens, cell line SUM1315MO, read-out: GI50 (converted)) was 224 nM.

With COc1cccc(-c2cc(=O)c3ccccc3o2)c1N [PD 98059] the GI50 [1] was 5.12, the GI50 (CAMA1 cell line, censored GI50 values, value is the negative log10 of mol/L) was 4.65 and the GI50 [2] was 5.56. For the same compound, the GI50 (HCC1937 cell line, censored GI50 values, value is the negative log10 of mol/L) was 4.50, the GI50 (cell line 600MPE, value is the negative log10 of mol/L) was 4.30 and the GI50 [3] was 5.12. For the same compound, the GI50 [4] was 4.04, the GI50 [5] was 4.00 and the GI50 (cell line BT483, value is the negative log10 of mol/L) was 4.12. For the same compound, the GI50 [6] was 4.65, the GI50 (cell line HCC70, value is the negative log10 of mol/L) was 4.30 and the GI50 [7] was 4.00. The GI50 [8] was 5.56, the GI50 (cell line HCC1395, value is the negative log10 of mol/L) was 4.00 and the GI50 (cell line HCC1419, value is the negative log10 of mol/L) was 4.20. It also gave a GI50 [9] of 4.12, a GI50 [10] of 4.30 and a GI50 [11] of 4.50. The GI50 [12] was 4.30, the GI50 [13] was 4.55 and the GI50 (cell line MDAMB134V, value is the negative log10 of mol/L) was 4.12. It also gave a GI50 (cell line MDAMB175V, value is the negative log10 of mol/L) of 4.24, a GI50 (cell line MDAMB361, value is the negative log10 of mol/L) of 4.30 and a GI50 (cell line MDAMB468, value is the negative log10 of mol/L) of 4.32. It also gave a GI50 [14] of 4.73, a GI50 (cell line SUM52PE, value is the negative log10 of mol/L) of 4.92 and a GI50 [15] of 4.44. The GI50 [16] was 4.30, the GI50 (cell line SUM185PE, value is the negative log10 of mol/L) was 4.88 and the GI50 (cell line SUM225CWN, value is the negative log10 of mol/L) was 4.42. For the same compound, the GI50 [17] was 4.30, the GI50 (cell line T47D, value is the negative log10 of mol/L) was 4.30 and the GI50 [18] was 4.27. The GI50 [19] was 4.00 and the GI50 [20] was 4.32.

In the case of ICRF-193, the GI50 [1] was 6.14, the GI50 (HCC38 cell line, censored GI50 values, value is the negative log10 of mol/L) was 6.54 and the GI50 [2] was 6.05. The GI50 (HCC1500 cell line, censored GI50 values, value is the negative log10 of mol/L) was 4.66, the GI50 (HCC1954 cell line, censored GI50 values, value is the negative log10 of mol/L) was 4.82 and the GI50 (HCC2185 cell line, censored GI50 values, value is the negative log10 of mol/L) was 5.69. For the same compound, the GI50 (SKBR3 cell line, censored GI50 values, value is the negative log10 of mol/L) was 5.22, the GI50 (SUM149PT cell line, censored GI50 values, value is the negative log10 of mol/L) was 4.75 and the GI50 (SUM159PT cell line, censored GI50 values, value is the negative log10 of mol/L) was 6.38. For the same compound, the GI50 (SUM1315MO2 cell line, censored GI50 values, value is the negative log10 of mol/L) was 6.21, the GI50 (UACC812 cell line, censored GI50 values, value is the negative log10 of mol/L) was 4.66 and the GI50 (ZR75B cell line, censored GI50 values, value is the negative log10 of mol/L) was 6.60. It also gave a GI50 (ZR751 cell line, censored GI50 values, value is the negative log10 of mol/L) of 6.07, a GI50 [3] of 6.14 and a GI50 [4] of 4.38. For the same compound, the GI50 [5] was 4.30, the GI50 [6] was 4.30 and the GI50 (cell line HCC38, value is the negative log10 of mol/L) was 6.54. For the same compound, the GI50 [7] was 4.30, the GI50 [8] was 6.05 and the GI50 [9] was 4.38. For the same compound, the GI50 (cell line HCC1500, value is the negative log10 of mol/L) was 4.66, the GI50 [10] was 4.30 and the GI50 [11] was 4.30. The GI50 [12] was 4.82, the GI50 [13] was 5.69 and the GI50 (cell line MDAMB436, value is the negative log10 of mol/L) was 4.30. For the same compound, the GI50 (cell line MDAMB453, value is the negative log10 of mol/L) was 4.45, the GI50 [14] was 5.22 and the GI50 [15] was 4.75. It also gave a GI50 [16] of 6.38, a GI50 [17] of 6.21 and a GI50 [18] of 4.66. The GI50 [19] was 6.60 and the GI50 [20] was 6.07.
